Key:
[1] = target: T1, Human PPARα (Homo sapiens, UniProt Q07869); assay: Activity assay on activating human PPARα (GAL4 chimeric receptor luciferase reporter, transient transfection in 293-T cells); format: cell-based; settings: for EC50: activation of PPARα; for Photon number (×10^4) / Increased multiple vs control: compound 10 μM; for Photon number (×10^4): luciferase measured 24 h after administration, control 2.1; for Increased multiple vs control: vs 0.2‰ DMSO blank control
T1 construct: expressed in transfected cells; host or cells: 293-T cells
T1 sequence (Q07869 239-466 limits assumed): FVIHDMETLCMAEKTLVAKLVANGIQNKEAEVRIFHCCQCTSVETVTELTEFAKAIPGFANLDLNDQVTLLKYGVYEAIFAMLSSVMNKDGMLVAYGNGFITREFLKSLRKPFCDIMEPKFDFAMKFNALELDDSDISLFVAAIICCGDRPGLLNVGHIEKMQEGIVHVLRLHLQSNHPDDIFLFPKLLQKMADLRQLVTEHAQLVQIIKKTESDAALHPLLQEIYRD
Protocol: (§1) The compounds were screened with respect to their functional effect of instantaneous transfection in 293-T cells, so that their capabilities of activating PPAR subtypes were determined. A chimeric receptor system as established in advance was used to compare the influence of receptor subtypes on the transcription activity of same target gene, with Rluc as an internal control to reduce the endogenous influence. Human PPARα and PPARγ ligand-binding domains were fused respectively with yeast transcription factor GAL4 DNA-binding domains, and then linked to expression vector pM of mammal, to thereby construct two plasmids pM-hPPARα/GAL4 and pM-PPARγ/GAL4. GAL4 DNA-binding area was linked to pB4-tk-luc, to thereby construct pB4-RES-tk-luc (a firefly luciferase reporter gene comprising GAL4 DNA-binding site). pRL-CMV-Rluc was used as an internal control to normalize transfection efficiency and endogenous influence.
(§2) 293-T cells were incubated in a 48-well plate at a cell density of 2-4×10^4/well, using a phenol red-free and antibiotic-free 1640 medium containing 10% defatted fetal calf serum (FCS). After culturing for 48 h, the medium was replaced with a phenol red-free and antibiotic-free 1640 medium containing 5% defatted FCS, and then three plasmids pM-hPPAR/GAL4, pB4-RES-tk-luc and pRL-CMV-Rluc pertaining to two subtypes were respectively co-transfected into the 293-T cells. The strength of luciferase was measured at the time of 24 h after administration, with 0.2‰ DMSO as a blank control.

[2] = target: T2, Human PPARγ (Homo sapiens, UniProt P37231); assay: Activity assay on activating human PPARγ (GAL4 chimeric receptor luciferase reporter, transient transfection in 293-T cells); format: cell-based; settings: for EC50: activation of PPARγ; for Photon number (×10^4) / Increased multiple vs control: compound 10 μM; for Photon number (×10^4): luciferase measured 24 h after administration, control 1.4; for Increased multiple vs control: vs 0.2‰ DMSO blank control
T2 construct: expressed in transfected cells; host or cells: 293-T cells
T2 sequence (P37231 238-503 limits assumed): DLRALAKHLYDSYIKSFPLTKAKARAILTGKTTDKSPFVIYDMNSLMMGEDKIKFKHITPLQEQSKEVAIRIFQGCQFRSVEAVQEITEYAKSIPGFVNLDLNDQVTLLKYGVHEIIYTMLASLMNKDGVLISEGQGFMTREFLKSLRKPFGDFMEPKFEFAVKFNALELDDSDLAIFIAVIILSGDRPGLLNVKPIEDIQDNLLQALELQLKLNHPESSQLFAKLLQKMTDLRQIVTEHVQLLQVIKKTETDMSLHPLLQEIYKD
Protocol: as §1, §2

Row | SMILES | melting point | EC50 [1] | Photon number (×10^4) [1] | Increased multiple vs control [1] | EC50 [2] | Photon number (×10^4) [2] | Increased multiple vs control [2]
1 | Cc1oc(-c2ccccc2)nc1CCOc1ccc(C[C@H](NC(=O)C=Cc2ccc(F)cc2F)C(=O)O)cc1Br [Example 12, (2S)-3-{3-bromo-4-[2-(5-methyl-2-phenyl-1,3-oxazol-4-yl)-ethoxy]-phenyl}-2-(3-(2,4-difluorophenyl)-acryloylamino)-propanoic acid] | 221 to 223 °C | – | – | – | – | – | –
2 | Cc1oc(-c2ccccc2)nc1CCOc1ccc(C[C@H](NC(=O)C=Cc2ccc(F)cc2F)C(=O)O)cc1 [Example 8, (2S)-2-[3-(2,4-difluorophenyl)-acryloylamino]-3-{4-[2-(5-methyl-2-phenyl-1,3-oxazol-4-yl)-ethoxy]-phenyl}-propanoic acid] | – | 4970 nM | 18.8 ×10^4 | 8.9 | 1160 nM | 27.6 ×10^4 | 19.7
3 | Cc1oc(-c2ccccc2)nc1CCOc1ccc(C[C@H](NC(=O)C=Cc2ccc(F)c(F)c2)C(=O)O)cc1 [Example 7, (2S)-2-[3-(3,4-difluorophenyl)acryloylamino]-3-{4-[2-(5-methyl-2-phenyl-1,3-oxazol-4-yl)-ethoxy]-phenyl}-propanoic acid] | – | – | 8.6 ×10^4 | 4.1 | – | 29.0 ×10^4 | 20.7

Next, values leading:

Row | melting point | EC50 [1] | Photon number (×10^4) [1] | Increased multiple vs control [1] | EC50 [2] | Photon number (×10^4) [2] | Increased multiple vs control [2] | SMILES
4 | 199 to 201 °C | 770 nM | 9.8 ×10^4 | 4.7 | 74 nM | 23.7 ×10^4 | 16.9 | Cc1oc(-c2ccccc2)nc1CCOc1ccc(C[C@H](NC(=O)C=Cc2ccco2)C(=O)O)cc1 [Example 9, (2S)-2-(3-(furan-2-yl)-acryloylamino)-3-{4-[2-(5-methyl-2-phenyl-1,3-oxazol-4-yl)-ethoxy]-phenyl}-propanoic acid]
5 | 188 to 190 °C | – | – | – | – | – | – | Cc1oc(-c2ccccc2)nc1CCOc1ccc(C[C@H](NC(=O)C=Cc2ccc(F)cc2)C(=O)O)cc1 [Example 3, (2S)-2-(3-(4-fluorophenyl)acryloylamino)-3-{4-[2-(5-methyl-2-phenyl-1,3-oxazol-4-yl)-ethoxy]-phenyl}-propanoic acid]
6 | – | – | – | – | – | 24.1 ×10^4 | 17.2 | Cc1ccc(C=CC(=O)N[C@@H](Cc2ccc(OCCc3nc(-c4ccccc4)oc3C)c(Br)c2)C(=O)O)cc1 [Example 10, (2S)-3-{3-bromo-4-[2-(5-methyl-2-phenyl-1,3-oxazol-4-yl)-ethoxy]-phenyl}-2-(3-p-tolylacryloylamino)-propanoic acid]

— patent publication US7781468B2, “Tyrosine derivatives substituted by N-arylacryloyl as agonists of hPPAR alpha and/or hPPAR gamma” (Beijing Molecule Science Technology Co., Ltd., priority 2004, dated 2010)
